# A melting point compilation (Tetko et al.)
row,SMILES,melting point
1,Cc1csc(C(O)C(F)(F)F)n1 (centres undefined),122 to 124 °C
2,CS(=O)(=O)N1CCN(S(=O)(=O)Cl)CC1,222 to 224 °C
3,CCC(Br)C(=O)c1ccc(NC(C)=O)cc1 (centres undefined),107 to 109 °C
4,Nc1cc(F)c(Br)cc1[N+](=O)[O-],166 to 168 °C
5,O=C(O)CN1CCCC1CO (centres undefined),146 to 148 °C
6,CC1CC(O)CC(C)N1 (centres undefined),109 to 111 °C
7,N#Cc1ccc(Oc2ccc(S(=O)(=O)Cl)cc2)cc1,110 to 112 °C
8,CC1(CCc2ccc(O)cc2)NC(=O)NC1=O (centres undefined),192 to 194 °C
9,O=C(CCCl)N1CCN(c2ncccn2)CC1,139 to 141 °C
10,CCOc1ccccc1OCCCC(=O)O,66 to 68 °C
11,CC(C)(C)OC(=O)N1CCN(S(=O)(=O)Cl)CC1,148 to 150 °C
12,CC1(C)CCC(CC(=O)O)CC1,45 to 47 °C
13,Cc1ccc(Sc2ccc(Cl)cc2N)c(C)c1,86 to 88 °C
14,Cc1cc(C)n(-c2ccc(S(N)(=O)=O)cc2)n1,243 to 245 °C
15,N#Cc1ccc(NCCO)cc1,84 to 86 °C
16,O=[N+]([O-])c1ccc(OCc2ccco2)nc1,87 to 89 °C
17,O=C(O)Cc1csc(-c2ccc(Cl)cc2Cl)n1,159 to 161 °C
18,NS(=O)(=O)c1cccc2ncccc12,179 to 181 °C
19,COc1ccc(Br)c(C#N)c1,101 to 103 °C
20,Cc1cccc(OCCC(=O)O)c1,99 to 101 °C
21,O=Cc1cnc(-c2cccnc2)s1,139 to 141 °C
22,CCC(Nc1c([N+](=O)[O-])c(C)nn1C)C(=O)O (centres undefined),129 to 131 °C
23,O=c1[nH]c2c(Br)cccc2c(=O)o1,169 to 171 °C
24,CC(=O)Oc1cc(C)ccc1C(=O)O,139 to 141 °C

row,SMILES,melting point
1,COc1ccc2nc(C)cc(O)c2c1,284 to 286 °C
2,CC(C)Cc1ccc(-c2csc(N)n2)cc1,108 to 110 °C
3,CC(C(=O)O)N1C(=O)NC2(CCCC2)C1=O (centres undefined),223 to 225 °C
4,O=C(c1ccc(Cl)cc1)N1CCNCC1,80 to 82 °C
5,Cc1nnc(N2CCCC2)c(C(N)=S)c1C,169 to 171 °C
6,Cc1cc(C)cc(-n2ncc(C=O)n2)c1,64 to 66 °C
7,Cc1noc2nc(-c3ccccc3C(F)(F)F)cc(C(=O)O)c12,170 to 172 °C
8,COc1ccc(NCC(=O)NN)cc1,94 to 98 °C
9,Cc1cccc(COc2ccccc2C(=O)O)c1,155 to 157 °C
10,CC(C)(C)C(=O)N1CCC(=O)CC1,94 to 96 °C
11,Nc1ccccc1Cn1ccnc1,81 to 83 °C
12,CC(C)(C)OC(=O)NCC1CCCCC1O (centres undefined),57 to 59 °C
13,Cc1noc(C)c1CSc1ccccc1C(=O)O,192 to 194 °C
14,O=C(O)c1ccc(NS(=O)(=O)c2ccc(Cl)c([N+](=O)[O-])c2)cc1O,242 to 244 °C
15,CC(=O)c1sc(NCCCC(=O)O)nc1C,140 to 142 °C
16,N#Cc1cccc(-n2ccnc2)n1,97 to 99 °C
17,O=C(O)CSc1ccc(F)cc1F,73 to 75 °C
18,Nc1nc2cc(-c3ccccc3)cc(Cl)c2o1,237 to 239 °C
19,CCN1CCN(Cc2ccc(N)cc2)CC1,72 to 74 °C
20,Nc1ccccc1C(=O)NCc1ccc2c(c1)OCO2,115 to 124 °C
21,COc1ccc(C(=O)CNC(=O)CCC(=O)O)cc1,167 to 169 °C
22,COc1cncc(C=CC(=O)O)c1,172 to 174 °C
23,Cc1ccc(C(=O)N2CC(C)CC(C)C2)cc1N (centres undefined),154 to 156 °C
24,O=[N+]([O-])c1ccc(NCC2CCCO2)c(F)c1 (centres undefined),68 to 70 °C

row,SMILES,melting point
1,N#Cc1cc2c(nc1Cl)CCCC2,128 to 130 °C
2,Sc1nnc(N2CCCC2)s1,179 to 181 °C
3,Cn1cc(C(=O)Nc2ccc(O)cc2)cn1,231 to 233 °C
4,Cn1c(S)nnc1COc1ccc(Cl)cc1,118 to 120 °C
5,Cc1cc(N2CCSCC2)ccc1N,79 to 81 °C
6,Nc1cc(F)c(F)cc1[N+](=O)[O-],107 to 108 °C
7,O=C1c2ccccc2-c2n[nH]c3cccc1c23,236 to 238 °C
8,O=C(O)CS(=O)Cc1ccc(Br)cc1 (centres undefined),141 to 143 °C
9,CCCCCCn1nc(C(=O)O)c2ccccc2c1=O,124 to 126 °C
10,Cn1ncc2c(O)c(C(=O)O)cnc21,193 to 195 °C
11,CC(O)c1ccc(S(=O)(=O)Nc2ccc(C(=O)O)cc2)cc1 (centres undefined),199 to 201 °C
12,CNC1(C(=O)O)CCc2ccccc21 (centres undefined),279 to 281 °C
13,Cc1ccccc1C1(C)NC(=O)NC1=O (centres undefined),169 to 171 °C
14,CC(C)(C(=O)O)c1ccc2c(c1)OCCO2,125 to 127 °C
15,NC(=O)c1ccc(N2CCCCC2)c(N)c1,168 to 170 °C
16,COc1ccccc1-c1c[nH]cc1C(=O)O,195 to 197 °C
17,NC1CCCc2nc(-c3ccc(F)cc3)sc21 (centres undefined),54 to 56 °C
18,COc1ccc(-c2ccncc2C=O)cc1,82 to 84 °C
19,CNC(=O)Cc1noc(CCl)n1,89 to 91 °C
20,O=C(Nc1ccccc1)Nc1ccc(C(=O)O)cc1,260 to 262 °C
21,NS(=O)(=O)C=Cc1ccc(F)cc1,148 to 150 °C
22,Cc1cc(N)n(CCO)n1,48 to 52 °C
23,N=C(NN)c1cc(F)cc(F)c1,101 to 103 °C
24,Cc1noc(C(F)F)c1C(=O)O,134 to 136 °C

row,SMILES,melting point
1,CC(C)(C)C1CCCCC(=O)N1 (centres undefined),126 to 128 °C
2,O=S(=O)(c1cccc(CO)c1)N1CCOCC1,96 to 98 °C
3,Clc1ncnc2ccc(I)cc12,173 to 175 °C
4,Cc1cc(N2CCNCC2)nc(C(C)C)n1,42 to 46 °C
5,O=C(O)Cn1c(=O)[nH]c2ccccc21,247 to 249 °C
6,O=C(O)CCSc1nc2ccccc2s1,149 to 151 °C
7,CC1CN(c2ccccc2C=O)CC(C)O1 (centres undefined),94 to 96 °C
8,O=C(CCl)Nc1cc(S(=O)(=O)N2CCOCC2)ccc1Cl,131 to 133 °C
9,Cn1nc(C(=O)O)ccc1=O,170 to 175 °C
10,O=[N+]([O-])c1ccc(Br)cc1F,86 to 88 °C
11,COc1cccc(/C=C/C(=O)O)c1OC(F)F,208 to 210 °C
12,CC(C)(C)OC(=O)N1CCN(S(=O)(=O)C2CNC2)CC1,132 to 134 °C
13,O=C1CCS(=O)(=O)c2cc(F)c(F)cc21,149 to 151 °C
14,O=C(O)c1nn(-c2cccc(Cl)c2)cc1O,235 to 237 °C
15,NC(CCCO)c1ccccc1 (centres undefined),72 to 74 °C
16,CC1CCN(c2cc(C(=O)O)ccn2)C1 (centres undefined),195 to 197 °C
17,O=C(O)c1ccc(-n2cccn2)nc1,267 to 269 °C
18,Cc1cc(S(=O)(=O)Cl)cc(C(=O)O)c1C,179 to 181 °C
19,COCc1ccc(C(=O)O)cc1OC,164 to 166 °C
20,CCOC(=O)c1sc2nc(CN3CCOCC3)nc(Cl)c2c1C,110 to 112 °C
21,O=C(O)c1ccc([N+](=O)[O-])[nH]1,162 to 164 °C
22,S=C1NCCO1,95 to 97 °C
23,O=C(O)c1csc(-c2ccc3c(c2)OCCO3)n1,199 to 201 °C
24,NNC(=O)Cc1cc(=O)[nH]c(S)n1,242 to 244 °C

row,SMILES,melting point
1,CCCCOc1ccc2cc(C(=O)O)[nH]c2c1,173 to 175 °C
2,CC(C(=O)O)N(C)C(=O)OCC1c2ccccc2-c2ccccc21 (centres undefined),119 to 121 °C
3,O=C(O)C=Cc1ccc(S(=O)(=O)NCc2ccco2)cc1,213 to 215 °C
4,OCc1cnn(-c2ccccc2)c1,63 to 67 °C
5,COc1ccc2c(c1)OCC2=O,119 to 121 °C
6,O=C(O)c1ccccc1CSc1nc2ccccc2o1,175 to 177 °C
7,COCCOc1ncccc1C(=O)O,58 to 60 °C
8,Oc1cccc2cn[nH]c12,181 to 183 °C
9,CC1(C)CCC(N)(C(N)=O)CC1,149 to 151 °C
10,Cc1ccc(S(=O)(=O)OI(O)c2ccccc2)cc1,134 to 136 °C
11,COC(=O)NCCC(=O)O,75 to 77 °C
12,Cc1csc(NC(=O)CSCC(N)C(=O)O)n1 (centres undefined),169 to 171 °C
13,CCn1ccnc(N)c1=O,119 to 121 °C
14,CNCC(=O)N1CCN(C(=O)OC(C)(C)C)CC1,64 to 66 °C
15,O=C(O)c1cncc2ccccc12,249 to 251 °C
16,CC1CCC2(CC1)NC(=O)N(N)C2=O (centres undefined),118 to 120 °C
17,Cc1ccc(CN(C)C(N)=O)cc1,146 to 148 °C
18,O=C(NCCO)c1cncc(Br)c1,128 to 130 °C
19,N#Cc1cccc(Oc2ccc(N)cc2)c1,39 to 41 °C
20,O=C(O)c1occc1CN1CCOCC1,184 to 186 °C
21,O=C(O)Cc1ccc(NS(=O)(=O)c2ccc(Cl)c(Cl)c2)cc1,174 to 176 °C
22,O=C(O)CSc1ccsc1[N+](=O)[O-],196 to 198 °C
23,Cc1cc(NC(=O)C(C)Cl)on1 (centres undefined),78 to 80 °C
24,O=C(O)c1cc(C2CC2)nn1-c1ccccc1,138 to 140 °C

row,SMILES,melting point
1,NC(=O)Nc1ccccc1Br,199 to 201 °C
2,O=C(O)c1sc2cccc(Cl)c2c1Cl,273 to 275 °C
3,CC(C)(C)OC(=O)N1CC=C(c2ccc(O)cc2)CC1,134 to 136 °C
4,CC(=O)c1cnn(-c2ccccc2)c1,124 to 126 °C
5,Nc1ccccc1N1C(=O)CCC1=O,231 to 233 °C
6,S=C=Nc1cccc2ncccc12,60 to 62 °C
7,NNC(=O)c1ccc(Cl)c(S(N)(=O)=O)c1,212 to 214 °C
8,CCn1c(=O)cc(N)n(Cc2ccccc2)c1=O,106 to 108 °C
9,COC(=O)C(C)Cn1cc(Br)cn1 (centres undefined),43 to 45 °C
10,NC(=S)Cc1nccn1Cc1ccccc1,131 to 133 °C
11,NS(=O)(=O)c1ccc2c(c1)OCO2,155 to 157 °C
12,NC(=S)C1CCOC1 (centres undefined),102 to 104 °C
13,O=C(O)CNC(=O)c1ccc(Cl)c(Cl)c1,136 to 138 °C
14,O=[N+]([O-])c1ccc(S(=O)(=O)Cl)c(Cl)c1,75 to 77 °C
15,CC1CC1C(N)=O (centres undefined),93 to 95 °C
16,NC(=O)c1cccnc1Sc1ccc(C(=O)O)cc1,257 to 259 °C
17,Cc1c(C(=O)O)cccc1-c1ccccn1,211 to 213 °C
18,O=C(O)Cn1cn[nH]c1=O,217 to 219 °C
19,CCN(CC)c1ccc(C(=O)O)cn1,154 to 156 °C
20,Nc1sc2c(c1C(=O)c1cccc(Cl)c1)CCC2,129 to 131 °C
21,CCNS(=O)(=O)c1ccc(Br)c(C)c1,91 to 93 °C
22,Cc1[nH]c(=O)c(C(=O)O)cc1-c1ccc(O)cc1,296 to 298 °C
23,CN(C)C(=O)Cc1ccccc1N,69 to 71 °C
24,Fc1cc2cccnc2cc1F,109 to 111 °C
